{"source": "patent US20030108619A1", "about": "“Bone-strengthening agents, food compositions for strengthening bone and feed compositions for strengthening bone” (priority 2000, published 2003)", "key": {"osteoclasts [1]": {"test_system": "osteoclasts", "conditions": "Biol. Pharm. Bull., 22, 805-809, 1999; cited from earlier work"}, "osteoclasts [2]": {"test_system": "osteoclasts", "conditions": "culture system using metaphysial tissue in the femora of old rats; Biochem. Pharmacol., 55: 71-76, 1998; cited from earlier work"}, "femora [3]": {"test_system": "femora", "test": "Dry weight of femora, Example 1", "assay_type": "in vivo, rat", "procedure": "(§1) 5-weeks old female Wistar rats (Convention) obtained from Japan SLC, Inc. (Hamamatsu, Japan) were used.\n(§2) 2. CPP-administered group: Basic feed+CPP (40 mg/100 g body weight)\n(§3) 3. Genistein-administered group: Basic feed+genistein (50 μg/100 g body weight)\n(§4) 4. CPP+genistein-administered group: Basic feed+CPP (40 mg/100 g body weight)+genistein (50 μg/100 g body weight)\nAs the CPP, a solution of CPP-III (casein phosphopeptide content 85%) manufactured by Meiji Seika Kaisha, Ltd., dissolved in distilled water was used. As the genistein, a reagent (manufactured by Sigma Chemical Company in U.S. A.) extracted from soybean and highly purified, dissolved in a 10% ethanol solution was used. […]\n(§5) After washing the extracted femora in a cold 0.25 M sucrose solution to remove a soft tissue and drying it in a drier at 100° C. for about 16 hours, the dry weight of the femora was measured. After the measurement, the extracted femora were divided into diaphysis (cortical bone) and metaphysis (trabecular bone) and the amount of calcium in each of them was measured. […] The solutions were used as sample solutions and the amount of calcium therein was determined by using an atomic absorption spectrophotometer. […]\n(§6) Significant tests of respective measured values were performed by using Student's t-test. […]"}, "[4]": {"test_system": "bone alkaline phosphatase", "test": "Activity of femoral alkaline phosphatase, Example 2", "assay_type": "in vivo, rat", "conditions": "50-weeks old rats", "procedure": "as §2, §3, §4\n(§7) As the CPP, a solution of CPP-III (casein phosphopeptide content 85%) manufactured by Meiji Seika Kaisha, Ltd., dissolved in distilled water was used. As the genistein, a reagent (manufactured by Sigma Chemical Company in U.S. A.) extracted from soybean and highly purified, dissolved in a 10% ethanol solution was used.\n(§8) Animal groups each consisting of five animals were fed with the basic feed under constant temperature and constant humidity conditions of room temperature 25° C., and 55% humidity. In addition, the control group was administered with 1 ml/100 g body weight of purified distilled water and the other groups were each orally administered with CPP and/or genistein in the above-mentioned amounts once a day for 14 days by using a stomach tube. After 24 hours from the last administration, the rats were sacrificed and the femora were extracted. The extracted femora were used for the measurement of bone components as shown below.\n(§9) The diaphysial tissue and metaphysial tissue of the femora obtained as described above were each dipped in 3 ml of a cold 6.5 mM barbital buffer (pH 7.4) and cut into small pieces and homogenized by using a Potter-Elvehjem homogenizer followed by ultrasonic treatment for 60 seconds for crushing. Further, the homogenate was centrifuged for 5 minutes at 600×g and the supernatant fraction was used as a crude enzyme solution.\n(§10) The activity of bone alkaline phosphatase was measured in accordance with the method of Walter and Schutt (Bergmeyer H. U. (ed.). Methods of Enzymatic Analysis, Vol. 1-2, Academic Press, New York, pp. 856-860, 1974). The enzymatic reaction was initiated by adding 0.05 ml of the above-mentioned crude enzyme solution to 2 ml of 0.1M diethanolamine hydrochloride buffer (pH 9.8) containing disodium p-nitrophenyiphosphate as a substrate. The reaction was performed by incubation at 37° C. for 30 minutes. The reaction was terminated by adding 10 ml of 0.05N NaOH and the activity was expressed in terms of the amount (μmol) of free p-nitrophenol per 1 minute per the mass (mg) of the enzyme protein used. The concentration of the protein was measured in accordance with the method of Lowry et al. (J. Biol. Chem., 193: 265-273, 1951).\nSignificant tests of respective measured values were performed by using Student's t-test. Values with a risk factor of 5% or less were taken as significant. […]"}, "femora [5]": {"test_system": "femora", "test": "Dry weight of femora, Example 2", "assay_type": "in vivo, rat", "procedure": "as §2, §3, §4, §7\nAnimal groups each consisting of five animals were fed with the basic feed under constant temperature and constant humidity conditions of room temperature 25° C., and 55% humidity. […]\nas §5, §6"}, "femora [6]": {"test_system": "femora", "test": "Amount of DNA in femora, Example 2", "assay_type": "in vivo, rat", "conditions": "50-weeks old rats", "procedure": "(§11) 2. CPP-administered group: Basic feed+CPP (40 mg/100 g body weight) 3. Genistein-administered group: Basic feed+genistein (50 μg/100 g body weight) 4. CPP+genistein-administered group: Basic feed+CPP (40 mg/100 g body weight)+genistein (50 μg/100 g body weight) As the CPP, a solution of CPP-III (casein phosphopeptide content 85%) manufactured by Meiji Seika Kaisha, Ltd., dissolved in distilled water was used. As the genistein, a reagent (manufactured by Sigma Chemical Company in U.S. A.) extracted from soybean and highly purified, dissolved in a 10% ethanol solution was used. Animal groups each consisting of five animals were fed with the basic feed under constant temperature and constant humidity conditions of room temperature 25° C., and 55% humidity. In addition, the control group was administered with 1 ml/100 g body weight of purified distilled water and the other groups were each orally administered with CPP and/or genistein in the above-mentioned amounts once a day for 14 days by using a stomach tube. After 24 hours from the last administration, the rats were sacrificed and the femora were extracted. The extracted femora were used for the measurement of bone components as shown below. The diaphysial tissue and metaphysial tissue of the femora thus obtained were each crushed in 4.0 ml of a cold 0.1 N NaOH solution after homogenization of the bone tissue, shaken at 4° C. for 24 hours and extracted. After the alkali extraction, centrifugation treatment was performed at 1,000×g for 5 minutes and the supernatant fraction was used as a sample for the measurement of DNA. The measurement of the amount of DNA was performed in accordance with the method of Ceriotti (J. Biol. Chem., 214: 39-77, 1955). To a test tube containing 2.0 ml of a sample were added 1.0 ml of concentrated hydrochloric acid and 1.0 ml of a 0.04% indole solution and the test tube was shut with an aluminum cap, followed by heating on a boiling water bath for 10 minutes and then quenched on ice to terminate the reaction. Extraction with 4.0 ml of chloroform for 3 to 4 minutes was repeated several times and the amount of DNA was measured on a spectrophotometer (490 nm). The amount of DNA was calculated per wet weight (g) of bone tissue. Significant tests of respective measured values were performed by using Student's t-test. Values with a risk factor of 5% or less were taken as significant. 1) The materials and methods in Example 2 were the same as in Example 1 except that 50-weeks old normal female Wistar rats obtained from Japan SLC, Inc. (Hamamatsu, Japan) were used as test animals."}, "[7]": {"test_system": "bone alkaline phosphatase", "test": "Activity of femoral alkaline phosphatase, Example 1", "assay_type": "in vivo, rat", "conditions": "5-weeks old rats", "procedure": "as §1, §2, §3, §4, §7, §8, §9, §10\n(§12) Significant tests of respective measured values were performed by using Student's t-test. Values with a risk factor of 5% or less were taken as significant."}, "femora [8]": {"test_system": "femora", "test": "Amount of calcium in femora, Example 1", "assay_type": "in vivo, rat", "conditions": "5-weeks old rats", "procedure": "as §1, §2, §3, §4, §7, §8\n(§13) After washing the extracted femora in a cold 0.25 M sucrose solution to remove a soft tissue and drying it in a drier at 100° C. for about 16 hours, the dry weight of the femora was measured. After the measurement, the extracted femora were divided into diaphysis (cortical bone) and metaphysis (trabecular bone) and the amount of calcium in each of them was measured. That is, the obtained diaphysial tissue and metaphysial tissue of the femora were each charged in a test tube, to which was added 3 ml of concentrated nitric acid to decompose them at 120° C. for 24 hours. The solutions were used as sample solutions and the amount of calcium therein was determined by using an atomic absorption spectrophotometer. The amounts of calcium were expressed in terms of mg per 1 g of the dry weight of the bone tissue.\nas §12"}, "femora [9]": {"test_system": "femora", "test": "Amount of calcium in femora, Example 2", "assay_type": "in vivo, rat", "conditions": "50-weeks old rats", "procedure": "as §2, §3, §4, §7, §8, §13, §12\n1) The materials and methods in Example 2 were the same as in Example 1 except that 50-weeks old normal female Wistar rats obtained from Japan SLC, Inc. (Hamamatsu, Japan) were used as test animals."}, "femora [10]": {"test_system": "femora", "test": "Amount of DNA in femora, Example 1", "assay_type": "in vivo, rat", "conditions": "5-weeks old rats", "procedure": "as §11, with “5-weeks old female Wistar rats (Convention) obtained from Japan SLC, Inc. (Hamamatsu, Japan) were used. 2. CPP-administered” for “2. CPP-administered”, “as significant.” for “as significant. 1) The materials and methods in Example 2 were the same as in Example 1 except that 50-weeks old normal female Wistar rats obtained from Japan SLC, Inc. (Hamamatsu, Japan) were used as test animals.”"}, "osteoblasts": {"test_system": "osteoblasts", "conditions": "Res. Exp. Med. 197: 101-107, 1997; cited from earlier work"}}}
{"smiles": "O=c1c(-c2ccc(O)cc2)coc2cc(O)cc(O)c12", "note": "[Genistein, genistein]", "values": [{"measurement": "Effect of inhibiting the function of osteoclasts, potency relative to daidzein", "setting": "osteoclasts [1]", "result": 10, "unit": "times"}, {"measurement": "Bone resorption by osteoclasts", "setting": "osteoclasts [2]", "result": "directly inhibits the bone resorption by osteoclasts"}, {"measurement": "Dry weight of femora", "setting": "femora [3]; 5-weeks old female Wistar rats, oral once a day for 14 days, CPP 40 mg/100 g, genistein 50 μg/100 g body weight", "result": "230.4 ± 1.20", "unit": "mg"}, {"measurement": "Dry weight of femora as compared with that of the control group", "setting": "femora [3]; 5-weeks old rats, oral 14 days", "result": 1.12, "unit": "times"}, {"measurement": "Activity of femoral alkaline phosphatase in the diaphysis as compared with that of the control group", "setting": "[4]; diaphysis", "result": 1.12, "unit": "times"}, {"measurement": "Activity of femoral alkaline phosphatase in the metaphysis as compared with that of the control group", "setting": "[4]; metaphysis", "result": 1.12, "unit": "times"}, {"measurement": "The activity of alkaline phosphatase, Diaphysis", "setting": "[4]; oral 14 days, diaphysis", "result": "0.653 ± 0.019", "unit": "μmol/min/mg protein"}, {"measurement": "The activity of alkaline phosphatase, Metaphysis", "setting": "[4]; oral 14 days, metaphysis", "result": "0.744 ± 0.020", "unit": "μmol/min/mg protein"}, {"measurement": "Dry weight of femora", "setting": "femora [5]; 50-weeks old female Wistar rats, oral once a day for 14 days, CPP 40 mg/100 g, genistein 50 μg/100 g body weight", "result": "475.3 ± 8.35", "unit": "mg"}, {"measurement": "Dry weight of femora as compared with that of the control group", "setting": "femora [5]; 50-weeks old rats, oral 14 days", "result": 1.08, "unit": "times"}, {"measurement": "Amount of DNA in the diaphysis as compared with that of the control group", "setting": "femora [6]; diaphysis", "result": 1.14, "unit": "times"}, {"measurement": "Amount of DNA in the metaphysis as compared with that of the control group", "setting": "femora [6]; metaphysis, printed under [Amount of DNA in Femora]", "result": 1.05, "unit": "times"}, {"measurement": "Amount of DNA, Diaphysis", "setting": "femora [6]; oral 14 days, diaphysis", "result": "1.391 ± 0.043 mg/g wet weight of bone"}, {"measurement": "Amount of DNA, Metaphysis", "setting": "femora [6]; oral 14 days, metaphysis", "result": "2.836 ± 0.041 mg/g wet weight of bone"}, {"measurement": "Activity of femoral alkaline phosphatase in the diaphysis as compared with that of the control group", "setting": "[7]; diaphysis", "result": 1.04, "unit": "times"}, {"measurement": "Activity of femoral alkaline phosphatase in the metaphysis as compared with that of the control group", "setting": "[7]; metaphysis", "result": 1.04, "unit": "times"}, {"measurement": "The activity of alkaline phosphatase, Diaphysis", "setting": "[7]; oral 14 days, diaphysis", "result": "1.809 ± 0.014", "unit": "μmol/min/mg protein"}, {"measurement": "The activity of alkaline phosphatase, Metaphysis", "setting": "[7]; oral 14 days, metaphysis", "result": "1.853 ± 0.017", "unit": "μmol/min/mg protein"}, {"measurement": "Amount of calcium in the diaphysis as compared with that of the control group", "setting": "femora [8]; diaphysis", "result": 1.12, "unit": "times"}, {"measurement": "Amount of calcium in the metaphysis as compared with that of the control group", "setting": "femora [8]; metaphysis", "result": 1.07, "unit": "times"}, {"measurement": "Bone calcium, Diaphysis", "setting": "femora [8]; oral 14 days, diaphysis", "result": "225.1 ± 3.23", "unit": "mg/g dry weight"}, {"measurement": "Bone calcium, Metaphysis", "setting": "femora [8]; oral 14 days, metaphysis", "result": "204.1 ± 3.56", "unit": "mg/g dry weight"}, {"measurement": "Amount of calcium in the diaphysis as compared with that of the control group", "setting": "femora [9]; diaphysis", "result": 1.07, "unit": "times"}, {"measurement": "Amount of calcium in femora in the metaphysis as compared with that of the control group", "setting": "femora [9]; metaphysis", "result": 1.08, "unit": "times"}, {"measurement": "Amount of bone calcium, Diaphysis", "setting": "femora [9]; oral 14 days, diaphysis", "result": "229.2 ± 3.4", "unit": "mg/g dry weight"}, {"measurement": "Amount of bone calcium, Metaphysis", "setting": "femora [9]; oral 14 days, metaphysis", "result": "202.1 ± 3.8", "unit": "mg/g dry weight"}, {"measurement": "Amount of DNA in the diaphysis as compared with that of the control group", "setting": "femora [10]; diaphysis", "result": 1.06, "unit": "times"}, {"measurement": "Amount of DNA in the metaphysis as compared with that of the control group", "setting": "femora [10]; metaphysis", "result": 1.09, "unit": "times"}, {"measurement": "Amount of DNA, Diaphysis", "setting": "femora [10]; oral 14 days, diaphysis", "result": "1.895 ± 0.013 mg/g wet weight of bone"}, {"measurement": "Amount of DNA, Metaphysis", "setting": "femora [10]; oral 14 days, metaphysis", "result": "2.894 ± 0.034 mg/g wet weight of bone"}, {"measurement": "Amount of DNA (index of increase in bone mineral content and cell growth by osteoblasts)", "setting": "osteoblasts", "result": "causes an increase in the amount of DNA"}]}
